Laboratory results published in patent US20150266864A1, “HETEROAROMATIC COMPOUNDS, METHOD FOR PREPARING THE COMPOUNDS, PHARMACEUTICAL COMPOSITIONS, USES AND METHOD FOR TREATING ACUTE AND CHRONIC PAIN” (CRISTÁLIA PRODUTOS QUÍMICOS FARMACÊUTICOS LTDA, priority 2012, published 2015).

How the values were obtained:
[1] = test system: rats subjected to sciatic nerve CCI; assay: Chronic constrictive injury (CCI) of the sciatic nerve, thermal hyperalgesia, paw withdrawal test; assay type: in vivo, rat; settings: for increase in latency of paw withdrawal: since the 3rd day of treatment
Protocol: The chronic constrictive injury (CCI) was induced by sciatic nerve ligation according to the method described by Bennett and Xie [Bennett. G. J.; Xie, Y. K. Pain […], 33: 87-107]. Male Wistar rats, weighing 180-240 g, were anesthetized with a mixture of ketamine and xylazine (60 mg/kg and 5 mg/kg, respectively), intraperitoneally. Through an incision of 0.5 cm (parallel and spaced about 10 mm from the left femur) the sciatic nerve was identified. With a thin glass rod, a small segment of sciatic nerve was exposed and four loosely ligatures were placed around the sciatic nerve spaced 1 mm each other using a 3-0 silk suture thread. After the procedure, the skin was sutured and a topical antiseptic was applied.
To assess animal behavior in response to hyperalgesic phenomenon resulting from sciatic nerve chronic constrictive injury, the model described by Hargreaves and Dubner was used [Hargreaves K., Dubner R., Brown F., Flores C., Joris J. Pain 1988, 32 (1): 77-88]. In this regard, paw withdrawal in response to a painful phenomenon was performed. This is a nociceptive test which involves a peripheral short thermal stimulus induced by the radiant heat of an incandescent lamp bulb. […] Radiant heat has an advantage over the other modes of thermal stimulation in that it produces no tactile stimulus. [Le Bars D., Gozariu M., Cadden S. W. Pharmacology Reviews, 2001, 53 (4), 597-652]. In this assay, a plantar test analgesimeter (ITC Life Science Inc, USA) was used.
Animals were placed in transparent acrylic boxes with tempered glass pane floor for 40 minutes to acclimate. After this period, the radiant heat was applied to the footpads of animals's hindpaws until they make the movement of paw withdrawal. The paw withdrawal latency was defined as the time recorded from the beginning of the radiant heat stimulus and the paw withdrawal. For each paw, three latency records were made, and the average value was used to define the paw withdrawal time control The maximum time that each animal was exposed to the radiant heat source (cut-off) was defined as three times the paw withdrawal time control, to avoid tissue injuries in animals's paws.
The day before surgery, rats, defined as “control before surgery”, were placed in acrylic boxes to the paw withdrawal test. On the 7th day after the surgery (CCI), the paw withdrawal test was again performed in order to verify neuropathic pain has been effectively developed in the left paw—defined as “post-surgery control.”
The paw withdrawal test was assessed during the days 1, 3, and 7 of the treatment (with amitriptyline hydrochloride or the compounds of examples of the instant invention) and on days 1, 3, and 7 after treatment interruption.
Differences were considered significant when p<0.05.

[2] = test system: Swiss mice; assay: Hot plate model, assay for acute pain; assay type: in vivo; settings: ip, 32.25 μmol/kg
[3] = test system: rats subjected to SNL; assay: Spinal nerve ligation (SNL) L5 model, thermal hyperalgesia; assay type: in vivo, rat
[4] = test system: rats subjected to SNL; assay: Spinal nerve ligation (SNL) L5 model, mechanical allodynia (digital Von Frey); assay type: in vivo, rat; settings: after the first day of treatment, p<0.05
[5] = first day of treatment, 32.25 μmol/kg ip
[6] = 32.25 μmol/kg ip, p<0.05 or p<0.005

Row | SMILES | antinociceptive effect, paw withdrawal latency vs post-surgery control [1, 5] | latency increase, statistical significance ([1]; first day of treatment, 32.25 μmol/kg ip, p<0.05 or p<0.005) | side effects compared to morphine [2] | increase in latency of paw withdrawal [1, 6] | melting point | onset of significant increase in latency ([1]; 5 mg/kg ip) | reversal of signs of thermal hyperalgesia ([1]; 5 mg/kg ip during 7 days) | onset of significant increase in latency ([1]; 10 mg/kg ip) | reversal of signs of thermal hyperalgesia ([1]; 10 mg/kg ip during 7 days) | paw withdrawal latency, thermal hyperalgesia ([3]; oral 30 mg/kg, after 7 days of treatment) | paw withdrawal latency, thermal hyperalgesia ([3]; oral 100 mg/kg, after 1 day of treatment) | reversion of the signs of mechanical allodynia ([4]; oral 30 mg/kg) | reversion of the signs of mechanical allodynia ([4]; oral 100 mg/kg)
1 | CCOC(=O)C1(c2ccccc2)CCN(CCc2conc2-c2ccc(F)cc2)CC1.Cl [C17, Ethyl 1-{2-[3-(4-fluorophenyl)-1,2-oxazol-4-yl]ethyl}-4-phenylpiperidine-4-carboxylate hydrochloride] | antinociceptive effects in the first day of treatment | the latency increase was statistically significant | no side effects of conventional morphine |  |  |  |  |  |  |  |  |  | 
2 | Cl.OC1(c2ccc(Cl)cc2)CCN(CCc2conc2-c2ccc(F)cc2)CC1 [C15, 4-(4-chlorophenyl)-1-{2-[3-(4-fluorophenyl)-1,2-oxazol-4-yl]ethyl}piperidin-4-ol hydrochloride] | antinociceptive effects in the first day of treatment |  | no side effects of conventional morphine | statistically significant increase in latency of paw withdrawal | 222 to 226 °C (dec.) |  |  |  |  |  |  |  | 
3 | Cl.Cl.Fc1ccc(-c2n[nH]cc2CCN2CCCCC2)cc1.O [C3, 1-{2-[3-(4-fluorophenyl)-1H-pyrazol-4-yl]ethyl}piperidine dihydrochloride monohydrate] | antinociceptive effects in the first day of treatment |  | no side effects of conventional morphine | statistically significant increase in latency of paw withdrawal |  | significant increase in latency starting on day 3 of treatment | effective in reversing the signs of thermal hyperalgesia | significant increase in latency starting on day 3 of treatment | effective in reversing the signs of thermal hyperalgesia | significantly increased the paw withdrawal latency | significantly increased the paw withdrawal latency | reversion of the signs of mechanical allodynia | reversion of the signs of mechanical allodynia
4 | CN1CCN(CCc2c[nH]nc2-c2ccc(F)cc2)CC1.Cl.Cl.Cl.O.O [C11, 1-{2-[3-(4-fluorophenyl)-1H-pyrazol-4-yl]ethyl}-4-methylpiperazine trihydrochloride dihydrate] | antinociceptive effects in the first day of treatment |  | no side effects of conventional morphine | statistically significant increase in latency of paw withdrawal |  |  |  |  |  |  |  |  | 
5 | Cl.Cl.Fc1ccc(-c2n[nH]cc2CCN2CCOCC2)cc1.O [C9, 4-{2-[3-(4-fluorophenyl)-1H-pyrazol-4-yl]ethyl}morpholine dihydrochloride monohydrate] |  |  | no side effects of conventional morphine | statistically significant increase in latency of paw withdrawal |  |  |  |  |  |  |  |  | 
